# Test results as given in paper PMC7765500, “Siderophore Scaffold as Carrier for Antifungal Peptides in Therapy of Aspergillus fumigatus Infections” (Journal of Fungi, 2020).
# Read-outs that look alike come from different tables or passages of the source. Square brackets hold non-standard residues; d marks the D form. Peptide text beside a SMILES is read from it. Orn(N5-OH,N5-Ac) = CC(=O)N(O)CCC[C@H](N)C(=O)O
# How the values were obtained:
# [1] = tested on: A. fumigatus (ATCC 46645); assay type: cell-based, Aspergillus fumigatus; conditions: AMM
# Method: (§1) Susceptibility tests were performed according to CLSI guidelines with slight modifications. In brief, 96-well plates (Greiner Bio-One GmbH) were prepared with 100 μL of 2 × AMM (Aspergillus minimal medium) or 0.2 × Potato Dextrose Broth (PDB) containing 3 × 10^4 spores of A. fumigatus (ATCC 46645) per well. An amount of 100μL antifungal, dissolved in water, was added to get a final concentration of 1 × AMM/0.1 × PDB medium and antifungal concentration ranging from 0.031–16 μg/mL.
# [2] = tested on: A. fumigatus (ATCC 46645); assay type: cell-based, Aspergillus fumigatus
# Method: as §1
# A. fumigatus [3] = tested on: A. fumigatus; set-up: method as in PMID 26956772; conditions: 24 h, 37 °C, 0.1 × Vogel's medium; cited from earlier work
# A. fumigatus [4] = tested on: A. fumigatus; set-up: method as in PMID 31405865; conditions: RPMI medium, 48 h; cited from earlier work
"MIC 24 h ([1]; 37 °C, 24 h) [µg/mL]","MIC 48 h ([1]; 37 °C, 48 h) [µg/mL]","MIC 24 h ([2]; 0.1 × PDB, 37 °C, 24 h) [µg/mL]","MIC 48 h ([2]; 0.1 × PDB, 37 °C, 48 h) [µg/mL]","MIC / growth inhibition ([2]; 0.1 × PDB, incubation time not given) [µg/mL]","MIC 48 h ([2]; ATCC 46645, 48 h) [µM]",Structure (SMILES),Antifungal activity (in words) ([1]; 0.031–16 µg/mL tested),IC50 (A. fumigatus [3]) [µM],MIC (A. fumigatus [4]) [µg/mL]
>16,>16,8,8,8,8.4,N=C(N)NCCC[C@@H](N)C(=O)N[C@H](CCCCN)C(=O)N[C@H](CCCCN)C(=O)N[C@H](Cc1c[nH]c2ccccc12)C(=O)N[C@H](Cc1ccccc1)C(=O)N[C@H](Cc1c[nH]c2ccccc12)C(N)=O [H2N-D-PAF26-NH2] (H-[dR][dK][dK][dW][dF][dW]-NH2),no inhibition could be observed,8,–
–,–,–,–,–,–,"CC(=O)N([O-])CCC[C@@H]1NC(=O)[C@H](CCCN([O-])C(C)=O)NC(=O)[C@H](CCCN([O-])C(C)=O)NC(=O)[C@@H](Cc2ccccc2)NC(=O)[C@H](CC(C)C)NC(=O)[C@H](CC(N)=O)NC1=O.[Al+3] [VL-2397] (cyclo(L[dF][Orn(N5-OH,N5-Ac)][Orn(N5-OH,N5-Ac)][Orn(N5-OH,N5-Ac)]N))",–,–,1
